Assay results published in US20210040118A1, “IMMUNOMODULATORS, COMPOSITIONS AND METHODS THEREOF” (BETTA PHARMACEUTICALS CO., LTD, priority 2018, published 2021).

Target: T1, PD-1/PD-L1 (Homo sapiens, UniProt Q9NZQ7)
T1 construct: Recombinant human PD-L1 protein (19-238) with a His-tag at the C-terminus; purchased AcroBiosystems PD1-H5229 (PD-L1); PD1-H5257 (PD-1)
Assay: PD-1/PD-L1 homogenous time-resolved fluorescence (HTRF) binding assay
Conditions: recombinant human PD-L1 (19-238) His-tag / human PD-1 (25-167) Fc tag, class symbols
Method: Resolved Fluorescence (HTRF) Binding Assay
The assays were conducted in a standard black 384-well polystyrene plate with a final volume of 20 μL. Inhibitors were first serially diluted in DMSO and then added to the plate wells before the addition of other reaction components. The final concentration of DMSO in the assay was 1%. The assays were carried out at 25° C. in the PBS buffer (pH 7.4) with 0.05% Tween-20 and 0.1% BSA. Recombinant human PD-L1 protein (19-238) with a His-tag at the C-terminus was purchased from AcroBiosy stems (PD1-H5229). Recombinant human PD-1 protein (25-167) with Fc tag at the C-terminus was also purchased from AcroBiosystems (PD1-H5257). PD-L1 and PD-1 proteins were diluted in the assay buffer and 10 μL was added to the plate well. Plates were centrifuged and proteins were preincubated with inhibitors for 40 min. The incubation was followed by the addition of […] of HTRF detection buffer supplemented with Europium cryptate-labeled anti-human IgG (PerkinElmer-AD0212) specific for Fc and anti-His antibody conjugated to SureLight®-Allophycocyanin (APC, PerkinElmer-AD0059H). After centrifugation, the plate was incubated at 25° C. for 60 min. Before reading on a PHERAstar FS plate reader (665 nm/620 nm ratio). Final concentrations in the assay were […] PD1, 10 nM PD-L1, 1 nM europium anti-human IgG and 20 nM anti-His-Allophycocyanin. IC50 determination was performed by fitting the curve of percent control activity versus the log of the inhibitor concentration using the GraphPad Prism 5.0 software.
Data obtained for the Example compounds using the PD-1/PD-L1 homogenous time-resolved fluorescence (HTRF) binding assay described in Example A is provided in Table 4.

T1 sequence (Q9NZQ7 19-238): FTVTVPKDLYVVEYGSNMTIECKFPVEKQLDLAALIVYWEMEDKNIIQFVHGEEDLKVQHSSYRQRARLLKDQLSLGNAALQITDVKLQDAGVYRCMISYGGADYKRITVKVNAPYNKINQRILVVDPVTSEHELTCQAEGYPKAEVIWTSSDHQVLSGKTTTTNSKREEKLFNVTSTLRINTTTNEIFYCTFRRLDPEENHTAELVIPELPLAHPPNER

Structure (SMILES)	IC50 [nM]
Cc1nc(C(=O)Nc2cccc(-c3cccc(NC(=O)c4nc(C)c(CN[C@H](C(=O)O)C5CCOCC5)s4)c3C)c2C)sc1CN[C@H](C(=O)O)C1CCOCC1 [Example 53, (2S,2'S)-2,2′-(2,2′-(2,2′-dimethylbiphenyl-3,3′-diyl)bis(azanediyl)bis(oxomethylene)bis(4-methylthiazole-5,2-diyl))bis(methylene)bis(azanediyl)bis(2-(tetrahydro-2H-pyran-4-yl)acetic acid)]	< 25
Cc1nc(C(=O)Nc2cccc(-c3cccc(NC(=O)c4nc(C)c(CN5CCCC[C@H]5C(=O)O)s4)c3Cl)c2C)sc1CN1CCCC[C@H]1C(=O)O [Example 54, (2S,2'S)-1,1′-(2,2′-(2-chloro-2′-methylbiphenyl-3,3′-diyl)bis(azanediyl)bis(oxomethylene)bis(4-methylthiazole-5,2-diyl))bis(methylene)dipiperidine-2-carboxylic acid]	< 25
Cc1nc(C(=O)Nc2cccc(-c3cccc(NC(=O)c4nc(C)c(CN[C@H](C(=O)O)C5CCOCC5)s4)c3Cl)c2C)sc1CN[C@H](C(=O)O)C1CCOCC1 [Example 55, (2S,2'S)-2,2′-(2,2′-(2-chloro-2′-methylbiphenyl-3,3′-diyl)bis(azanediyl)bis(oxomethylene)bis(4-methylthiazole-5,2-diyl))bis(methylene)bis(azanediyl)bis(2-(tetrahydro-2H-pyran-4-yl)acetic acid)]	< 25
Cc1nc(C(=O)N2CCc3c(-c4cccc5c4CCN5C(=O)c4nc(C)c(CN5CCCC[C@H]5C(=O)O)s4)cccc32)sc1CN1CCCC[C@H]1C(=O)O [Example 56, (2S,2'S)-1,1′-(2,2′-(4,4′-biindoline-1,1′-diylbis(oxomethylene))bis(4-methylthiazole-5,2-diyl))bis(methylene)dipiperidine-2-carboxylic acid]	< 25
Cc1nc(C(=O)N2CCc3c(-c4cccc5c4CCN5C(=O)c4nc(C)c(CN[C@H](C(=O)O)C5CCOCC5)s4)cccc32)sc1CN[C@H](C(=O)O)C1CCOCC1 [Example 57, (2S,2'S)-2,2′-(2,2′-(4,4′-biindoline-1,1′-diylbis(oxomethylene))bis(4-methylthiazole-5,2-diyl))bis(methylene)bis(azanediyl)bis(2-(tetrahydro-2H-pyran-4-yl)acetic acid)]	< 25
Cc1nc(C(=O)Nc2cccc(-c3cccc4c3CCN4C(=O)c3nc(C)c(CN4CCCC[C@H]4C(=O)O)s3)c2C)sc1CN1CCCC[C@H]1C(=O)O [Example 58, (S)-1-((2-(3-(1-(5-(((S)-2-carboxypiperidin-1-yl)methyl)-4-methylthiazole-2-carbonyl)indolin-4-yl)-2-methylphenylcarbamoyl)-4-methylthiazol-5-yl)methyl)piperidine-2-carboxylic acid]	< 25
Cc1nc(C(=O)Nc2cccc(-c3cccc4c3CCN4C(=O)c3nc(C)c(CN[C@H](C(=O)O)C4CCOCC4)s3)c2C)sc1CN[C@H](C(=O)O)C1CCOCC1 [Example 59, (S)-2-((2-(3-(1-(5-(((S)-carboxy(tetrahydro-2H-pyran-4-yl)methylamino)methyl)-4-methylthiazole-2-carbonyl)indolin-4-yl)-2-methylphenylcarbamoyl)-4-methylthiazol-5-yl)methylamino)-2-(tetrahydro-2H-pyran-4-yl)acetic acid]	< 25
Cc1nc(C(=O)Nc2cccc(-c3cccc4c3CCN4C(=O)c3nc(C)c(CN4CCCC[C@H]4C(=O)O)s3)c2Cl)sc1CN1CCCC[C@H]1C(=O)O [Example 60, (S)-1-((2-(3-(1-(5-(((S)-2-carboxypiperidin-1-yl)methyl)-4-methylthiazole-2-carbonyl)indolin-4-yl)-2-chlorophenylcarbamoyl)-4-methylthiazol-5-yl)methyl)piperidine-2-carboxylic acid]	< 25
Cc1nc(C(=O)Nc2cccc(-c3cccc4c3CCN4C(=O)c3nc(C)c(CN[C@H](C(=O)O)C4CCOCC4)s3)c2Cl)sc1CN[C@H](C(=O)O)C1CCOCC1 [Example 61, (S)-2-((2-(3-(1-(5-(((S)-carboxy(tetrahydro-2H-pyran-4-yl)methylamino)methyl)-4-methylthiazole-2-carbonyl)indolin-4-yl)-2-chlorophenylcarbamoyl)-4-methylthiazol-5-yl)methylamino)-2-(tetrahydro-2H-pyran-4-yl)acetic acid]	< 25
Cc1nc(C(=O)Nc2cccc(-c3cccc4c3CCN4C(=O)c3nc(C)c(CN4CCCC[C@H]4C(=O)O)s3)c2)sc1CN1CCCC[C@H]1C(=O)O [Example 62, (S)-1-((2-(3-(1-(5-(((S)-2-carboxypiperidin-1-yl)methyl)-4-methylthiazole-2-carbonyl)indolin-4-yl)phenylcarbamoyl)-4-methylthiazol-5-yl)methyl)piperidine-2-carboxylic acid]	< 25
Cc1nc(C(=O)Nc2cccc(-c3cccc4c3CCN4C(=O)c3nc(C)c(CN[C@H](C(=O)O)C4CCOCC4)s3)c2)sc1CN[C@H](C(=O)O)C1CCOCC1 [Example 63, (S)-2-((2-(3-(1-(5-(((S)-carboxy(tetrahydro-2H-pyran-4-yl)methylamino)methyl)-4-methylthiazole-2-carbonyl)indolin-4-yl)phenylcarbamoyl)-4-methylthiazol-5-yl)methylamino)-2-(tetrahydro-2H-pyran-4-yl)acetic acid]	< 25
Cc1c(NC(=O)c2nc3c(n2C)CNCC3)cccc1-c1cccc(NC(=O)c2nc3c(n2C)CNCC3)c1C [Example 64, N,N′-(2,2′-dimethylbiphenyl-3,3′-diyl)bis(3-methyl-4,5,6,7-tetrahydro-3H-imidazo[4,5-c]pyridine-2-carboxamide)]	< 25
O=C(O)CN1CCc2nc(C(=O)Nc3cccc(-c4cccc(NC(=O)c5nc6c(s5)CN(CC(=O)O)CC6)c4Cl)c3Cl)sc2C1 [Example 65, 2,2′-((((2,2′-dichloro-[1,1′-biphenyl]-3,3′-diyl)bis(azanediyl))bis(carbonyl))bis(6,7-dihydrothiazolo[5,4-c]pyridine-2,5(4H)-diyl))diacetic acid]	< 25
O=C(Nc1cccc(-c2cccc(NC(=O)c3ncc(CNCCO)s3)c2Cl)c1Cl)c1ncc(CNCCO)s1 [Example 66, N,N′-(2,2′-dichloro-[1,1′-biphenyl]-3,3′-diyl)bis(5-(((2-hydroxyethyl)amino)methyl)thiazole-2-carboxamide)]	< 25
O=C(Nc1cccc(-c2cccc(NC(=O)c3ncc(CN4C[C@H](O)C[C@H]4C(=O)O)s3)c2Cl)c1Cl)c1ncc(CN2C[C@H](O)C[C@H]2C(=O)O)s1 [Example 67, (2S,2'S,4R,4′R)-1,1′-(((((2,2′-dichloro-[1,1′-biphenyl]-3,3′-diyl)bis(azanediyl))bis(carbonyl))bis(thiazole-2,5-diyl))bis(methylene))bis(4-hydroxypyrrolidine-2-carboxylic acid)]	< 25
O=C(Nc1cccc(-c2cccc(NC(=O)c3ncc(CNCC(F)(F)F)s3)c2Cl)c1Cl)c1ncc(CNCC(F)(F)F)s1 [Example 68, N,N′-(2,2′-dichloro-[1,1′-biphenyl]-3,3′-diyl)bis(5-(((2,2,2-trifluoroethyl)amino)methyl)thiazole-2-carboxamide)]	< 25
CC(C)[C@H](NCc1cnc(C(=O)Nc2cccc(-c3cccc(NC(=O)c4ncc(CN[C@H](C(=O)O)C(C)C)s4)c3Cl)c2Cl)s1)C(=O)O [Example 69, ((2-((3′-(5-((((S)-1-carboxy-2-methylpropyl)amino)methyl)thiazole-2-carboxamido)-2,2′-dichloro-[1,1′-biphenyl]-3-yl)carbamoyl)thiazol-5-yl)methyl)-L-valine]	< 25
O=C(c1ncc(CNCCO)s1)N1CCc2c(-c3cccc4c3CCN4C(=O)c3ncc(CNCCO)s3)cccc21 [Example 70, [4,4′-biindoline]-1,1′-diylbis((5-(((2-hydroxyethyl)amino)methyl)thiazol-2-yl)methanone)]	< 25
O=C(Nc1cccc(-c2cccc(NC(=O)c3ncc(CN[C@H](C(=O)O)C4CCOCC4)s3)c2Cl)c1Cl)c1ncc(CN[C@H](C(=O)O)C2CCOCC2)s1 [Example 71, (2S,2'S)-2,2′-((((((2,2′-dichloro-[1,1′-biphenyl]-3,3′-diyl)bis(azanediyl))bis(carbonyl))bis(thiazole-2,5-diyl))bis(methylene))bis(azanediyl))bis(2-(tetrahydro-2H-pyran-4-yl)acetic acid)]	< 25
Cc1c(NC(=O)c2ncc(CN3CCCC[C@H]3C(=O)O)s2)cccc1-c1cccc2c1CCN2C(=O)c1ncc(CN2CCCC[C@H]2C(=O)O)s1 [Example 72, (S)-1-((2-((3-(1-(5-(((S)-2-carboxypiperidin-1-yl)methyl)thiazole-2-carbonyl)indolin-4-yl)-2-methylphenyl)carbamoyl)thiazol-5-yl)methyl)piperidine-2-carboxylic acid]	< 25
